Measurements from article PMC5161367, “Discovery of Novel Small Molecule Inhibitors of VEGF Expression in Tumor Cells Using a Cell-Based High Throughput Screening Platform” (PLoS ONE, 2016).

How the values were obtained:
Cyp1A2 = Cyp1A2 (Homo sapiens, UniProt P05177); assay: p450 inhibition Cyp1A2; type: in vitro ADME
Cyp2C19 = Cyp2C19 (Homo sapiens, UniProt P33261); assay: p450 inhibition Cyp2C19; type: in vitro ADME
[1] = Body weight in the xenograft study; type: in vivo, mouse; settings: HT1080 xenograft study, 10 and 50 mg/kg
Method: (§1) Log phase growing tumor cells (5–10 x 10^6 cells/mouse, depending on the cell line) were implanted subcutaneously in athymic nude mice. When the average tumor size reached the indicated size, mice were randomly divided into groups and administered vehicle (5% DMSO/ 95% PEG-300) or test compounds by oral gavage. Tumor volumes were measured twice per week using digital calipers and body weights once per week. Tumor volume was determined according to the formula: L x (W)^2/2, where L is the longest dimension and W is the shortest dimension.
Body weight was measured at the indicated time for each mouse until the group average tumor size reached […] and the whole group were then took down. (DOC) Click here for additional data file.
Body weight was measured at the indicated time for each mouse until the group average tumor size reached […] and the whole group were then took down. Data in this graph represents the average body weight (g) ± SD, n = 10.

[2] = Microsome metabolism - human; type: in vitro ADME
Method: (§2) Pharmacological characterization of PTC-510. Pharmacological assays were performed to characterize PTC-510, including metabolic stability in human, primate mouse and rat liver microsomes; absorption in Caco-2 cells; in vitro effect on hERG ion channel; pharmacokinetics; and acute toxicity in the rat.

Cyp3A4 = Cyp3A4 (Homo sapiens, UniProt P08684); assay: p450 inhibition Cyp3A4; type: in vitro ADME
Sequence of Cyp3A4 (P08684 whole entry): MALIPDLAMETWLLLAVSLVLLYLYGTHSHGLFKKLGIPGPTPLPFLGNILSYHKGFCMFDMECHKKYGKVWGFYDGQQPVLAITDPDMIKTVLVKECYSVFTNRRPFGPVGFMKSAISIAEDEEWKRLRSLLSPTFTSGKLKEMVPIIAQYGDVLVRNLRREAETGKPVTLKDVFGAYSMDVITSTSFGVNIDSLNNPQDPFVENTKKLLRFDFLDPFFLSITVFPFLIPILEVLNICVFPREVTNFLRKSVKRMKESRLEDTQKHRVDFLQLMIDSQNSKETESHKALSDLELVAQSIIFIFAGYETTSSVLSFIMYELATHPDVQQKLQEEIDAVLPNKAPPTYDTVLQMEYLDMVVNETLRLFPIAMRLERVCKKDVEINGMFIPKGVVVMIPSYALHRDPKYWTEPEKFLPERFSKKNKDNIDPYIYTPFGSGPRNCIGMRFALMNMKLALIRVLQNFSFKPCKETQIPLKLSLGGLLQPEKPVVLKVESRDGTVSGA

[3] = Microsome metabolism - primate; type: in vitro ADME
Method: as §2

[4] = Pharmacokinetics in the rat; type: in vivo; design: Dose normalized AUC in the rat: unit not given here
Method: as §2

hERG ion channel = hERG ion channel (Homo sapiens, UniProt Q12809); type: biochemical
Sequence of hERG ion channel (Q12809 whole entry): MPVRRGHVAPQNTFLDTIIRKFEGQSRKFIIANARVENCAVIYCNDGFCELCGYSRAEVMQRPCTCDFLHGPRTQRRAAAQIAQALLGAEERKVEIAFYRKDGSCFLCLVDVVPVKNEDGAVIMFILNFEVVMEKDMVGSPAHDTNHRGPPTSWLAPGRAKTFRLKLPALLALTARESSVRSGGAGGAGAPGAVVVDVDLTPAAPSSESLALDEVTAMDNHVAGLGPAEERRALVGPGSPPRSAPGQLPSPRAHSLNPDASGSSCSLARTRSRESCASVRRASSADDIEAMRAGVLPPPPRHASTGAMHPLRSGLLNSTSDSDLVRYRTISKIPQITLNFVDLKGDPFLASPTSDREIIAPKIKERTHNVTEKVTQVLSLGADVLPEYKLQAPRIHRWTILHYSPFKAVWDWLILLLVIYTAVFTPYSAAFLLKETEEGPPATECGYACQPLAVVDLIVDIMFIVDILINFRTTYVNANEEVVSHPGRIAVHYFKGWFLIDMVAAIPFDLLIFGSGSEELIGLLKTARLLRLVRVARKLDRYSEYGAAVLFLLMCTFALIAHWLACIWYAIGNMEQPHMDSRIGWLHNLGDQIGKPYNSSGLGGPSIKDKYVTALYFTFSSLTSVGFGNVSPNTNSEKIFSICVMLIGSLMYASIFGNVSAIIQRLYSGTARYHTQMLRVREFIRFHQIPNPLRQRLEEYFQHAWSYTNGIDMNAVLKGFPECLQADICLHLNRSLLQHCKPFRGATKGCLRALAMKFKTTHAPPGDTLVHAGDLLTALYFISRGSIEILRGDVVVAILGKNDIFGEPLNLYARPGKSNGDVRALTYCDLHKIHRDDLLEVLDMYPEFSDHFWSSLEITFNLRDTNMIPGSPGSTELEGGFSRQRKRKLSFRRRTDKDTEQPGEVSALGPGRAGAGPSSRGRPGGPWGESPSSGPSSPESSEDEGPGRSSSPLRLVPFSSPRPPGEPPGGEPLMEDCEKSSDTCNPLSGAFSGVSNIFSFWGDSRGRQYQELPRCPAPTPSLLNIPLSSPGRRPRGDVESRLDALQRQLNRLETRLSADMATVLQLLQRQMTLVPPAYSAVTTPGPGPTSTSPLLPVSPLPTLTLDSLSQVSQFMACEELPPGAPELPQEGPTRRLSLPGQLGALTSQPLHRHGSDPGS
Method: as §2

[5] = Microsome metabolism - rat; type: in vitro ADME
Method: as §2

[6] = Acute Toxicity Dose (ATD); type: in vivo
Method: as §2

[7] = Microsome metabolism - dog; type: in vitro ADME
VEGF mRNA UTRs reporter = assay: UTR-selectivity luciferase reporter cell lines (VEGF vs HIF-1α, DPPIV UTRs); type: cell-based, human; settings: HEK 293 luciferase reporter stable cell lines
From the text: (§3) Selective inhibition by PTC-510 of reporter gene expression mediated by VEGF mRNA UTRs. All luciferase reporter stable cell lines used in this study were generated from HEK 293 cells transfected with the luciferase reporter gene flanked with the UTRs derived from each target gene. HIF-1α: hypoxia Inducible Factor 1 alpha; DPPIV: dipeptidyl peptidase IV. (DOC) Click here for additional data file.
as §3, with “[picture] Selective” for “Selective”, “IV.” for “IV. (DOC) Click here for additional data file.”

hSurvivin = assay: HT1080 xenograft pharmacodynamic model, intratumor hSurvivin; type: in vivo, human; settings: 200 mg/kg, twice per day for 7 days, oral, mean +/- SD, n = 10
Method: as §1
(§4) At the end of experiments, the tumors were excised from mice and homogenized on ice using a Powergen homogenizer fitted with Omni-Tip disposable/reusable probes (both from Fisher Scientific) in Tris-HCl buffer containing a cocktail of proteinase inhibitors. Intra-tumor human VEGF levels, as well as levels of other growth factors or proteins, were subsequently measured using commercially available ELISA kits (R&D Systems). Protein concentrations of the homogenates were determined using the Bradford protein assay (Bio-Rad) and intratumor growth factor levels were normalized to the total protein concentration.
(§5) Among the VEGF UTR-selective compounds identified, PTC-858 is a potent hit with adequate pharmaceutical properties (data not shown). […]

EPO = EPO ELISA in HepB3 cells under hypoxia; type: cell-based; settings: Homo sapiens; HepB3 cells under hypoxia (1% oxygen), 48 hours
Method: (§6) Cells were treated with vehicle control (0.5% DMSO) or compounds at the indicated concentration for 48 hours, and specific proteins in conditioned medium were quantified using commercially available ELISA kits (R&D Systems) according to the manufacturer’s recommendations. VEGF was quantified in HeLa cells under hypoxia (1% oxygen); Tumor necrosis factor alpha (TNFα) was quantified in CEM cells stimulated with 1 μg/mL interleukin-1 beta (Sigma); erythropoietin (EPO) was quantified in HepB3 cells under hypoxic conditions (1% oxygen); and granulocyte colony-stimulating factor (G-CSF), basic fibroblast growth factor (FGF-2) and insulin-like growth factor 1 (IGF-1) were quantified without induction in HT1080 cells, HeLa cells and HepG2 cells, respectively.
(§7) Several target proteins were chosen as selectivity counter-screens, including TNF-alpha, FGF-2, G-CSF, IGF-1, and EPO. Similar to that of VEGF, the expression levels of these proteins are post-transcriptionally regulated, either through a 5’-UTR IRES, 3’-UTR AU-rich elements (AREs), or both.

G-CSF = G-CSF ELISA in HT1080 cells under normoxia; type: cell-based; settings: Homo sapiens, HT-1080; HT1080 cells under normoxia (21% oxygen), 48 hours
Method: as §6, §7

[8] = Cytotoxicity, CellTiter-Glo, foreskin fibroblasts; type: cell-based; settings: human, primary foreskin fibroblasts, read-out: Cytotoxicity CC50, Foreskin Fibroblast
Method: The cytotoxicity of compounds was determined in peripheral blood mononuclear cells (PBMCs) and primary human foreskin fibroblasts, both purchased frozen from AllCells, Inc, CA. Cells were incubated with test compound at various concentrations in triplicate for a period of 3 days in 96-well plates. The cytotoxicity or inhibition of cell proliferation was determined using a standard CellTiter-Glo® Luminescent Cell Viability Assay (Promega, Madison, WI) that measures total cellular adenosine triphosphate (ATP) concentration as a function of cell viability. In addition, cytotoxicity assays were also performed in HeLa cells in parallel with VEGF ELISA to ensure that the inhibition of VEGF production in HeLa cells was not due to cytotoxicity.

hFGF-2 = assay: HT1080 xenograft pharmacodynamic model, intratumor hFGF-2; type: in vivo, mouse; settings: twice per day for 7 days
Method: as §1, §4, §5

Sequence of Cyp1A2 (P05177 whole entry): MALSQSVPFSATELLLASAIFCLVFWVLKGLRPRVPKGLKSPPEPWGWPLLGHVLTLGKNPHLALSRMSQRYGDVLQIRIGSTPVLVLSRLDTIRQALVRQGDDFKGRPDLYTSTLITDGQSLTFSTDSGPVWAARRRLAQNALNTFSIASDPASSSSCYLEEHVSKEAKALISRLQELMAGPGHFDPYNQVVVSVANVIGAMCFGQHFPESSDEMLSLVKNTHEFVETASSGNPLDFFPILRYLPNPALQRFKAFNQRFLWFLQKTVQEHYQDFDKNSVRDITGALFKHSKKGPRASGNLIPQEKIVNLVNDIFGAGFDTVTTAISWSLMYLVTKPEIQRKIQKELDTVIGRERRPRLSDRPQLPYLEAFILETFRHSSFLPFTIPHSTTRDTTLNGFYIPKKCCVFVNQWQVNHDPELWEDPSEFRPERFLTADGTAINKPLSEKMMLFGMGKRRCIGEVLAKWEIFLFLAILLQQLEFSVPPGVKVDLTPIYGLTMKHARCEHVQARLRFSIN
Sequence of Cyp2C19 (P33261 whole entry): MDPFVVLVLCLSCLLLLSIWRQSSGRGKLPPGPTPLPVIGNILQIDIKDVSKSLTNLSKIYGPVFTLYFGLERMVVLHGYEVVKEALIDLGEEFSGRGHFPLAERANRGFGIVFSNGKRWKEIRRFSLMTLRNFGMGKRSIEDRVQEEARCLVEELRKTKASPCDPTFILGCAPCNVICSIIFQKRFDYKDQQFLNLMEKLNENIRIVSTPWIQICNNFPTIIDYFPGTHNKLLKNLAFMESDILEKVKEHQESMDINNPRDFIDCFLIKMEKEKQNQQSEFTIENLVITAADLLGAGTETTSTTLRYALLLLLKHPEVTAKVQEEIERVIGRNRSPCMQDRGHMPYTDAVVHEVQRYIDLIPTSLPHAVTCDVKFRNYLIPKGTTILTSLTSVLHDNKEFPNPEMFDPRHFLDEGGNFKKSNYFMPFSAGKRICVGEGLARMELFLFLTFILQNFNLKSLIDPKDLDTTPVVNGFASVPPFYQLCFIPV

| SMILES | IC50 (Cyp1A2) [µM] | IC50 (Cyp2C19) [µM] | overt toxicity (body weight loss) [1] | Microsome metabolism - human, % loss @ 1 h [2] [%] | IC50 (Cyp3A4) [µM] | Microsome metabolism - primate, % loss @ 1 h [3] [%] | Dose normalized AUC in the rat [4] | bioavailability ([4]; in vivo, po, DMSO/PEG) [%] | HERG % inhibition @ 10 µM (hERG ion channel) [%] | Microsome metabolism - rat, % loss @ 1 h [5] [%] | Acute Toxicity Dose (ATD) in mouse [6] | Microsome metabolism - dog, % loss @ 1 h [7] [%] | VEGF UTR selectivity compared to UTRs of HIF-1α and DPPIV (VEGF mRNA UTRs reporter) | intratumor hSurvivin (hSurvivin) | EC50 (EPO) [µM] | EC50 (G-CSF) [µM] | CC50 at 72 hours [8] [µM] | changes in FGF-2 in vivo (hFGF-2; 200 mg/kg orally) | intratumor hFGF-2 (hFGF-2; 200 mg/kg, oral, mean +/- SD, n = 10) |
| --- | --- | --- | --- | --- | --- | --- | --- | --- | --- | --- | --- | --- | --- | --- | --- | --- | --- | --- | --- |
| COc1ccc(C2c3[nH]c4ccc(Br)cc4c3CC3C(=O)N(C4CCCCC4)C(=S)N32)cc1.O=C(O)C(F)(F)F (stereo not shown) [PTC-510, 9-bromo-2-cyclohexyl-5-(4-methoxyphenyl)-3-thioxo-2,3,5,6,11,11a-hexahydro-1H-imidazo[1’,5’:1,6]pyrido[3,4-b]indol-1-one trifluoroacetate] | > 5 | > 5 | No overt toxicity | 0 | 3.7 | 0 | 2.60 | 50 | 2 | 0 | No overt toxicity at 1000 mg/kg | 0 | VEGF UTR selective |  |  |  |  |  |  |
| Brc1ccc2[nH]c3c(c2c1)CCCC3n1cccc1 (stereo not shown) [PTC-858, 6-bromo-1-(1H-pyrrol-1-yl)-2,3,4,9-tetrahydro-1H-carbazole] |  |  |  |  |  |  |  |  |  |  |  |  |  | 1815.43 ± 321.9 pg/mg total tumor proteins | 8.1 | > 30 | > 30 | not significant | 3126.8 ± 1073.7 pg/mg total tumor proteins |
